Assay: in vitro
Settings: human, hela cells
[1] = % viability, bulk resorufin, single well

Structure (SMILES)	viability at 28.5 h, 10 µM (% viability)	other results
CCN(CC)C(=O)C1CN2CCc3cc(OC)c(OC)cc3C2CC1OC(C)=O (stereo not drawn) [CBK022778]	110%	
OC(c1ccc2c(c1)OCO2)C1CCCCC1N1CCCCCC1 (stereo not drawn) [CBK022779C]	100%	
CCOC(=O)N1CCN(CC2CCCCN2)CC1 (stereo not drawn) [CBK022780G]	83.4%	
COC(=O)C(C)CN1CC2CCC(CC2)C1 (stereo not drawn) [CBK022785C]	106%	
COc1ccc(Nc2cc(Cl)ccc2C(=O)O)cn1 [CBK022801]	91.5%	
Cc1cc(=[N+]2CCCCC2)cc(C)o1 [CBK022824I]	96.7%	
CC(C)(C)CC(C)(C)Nc1nc(N)nc(N)n1 [CBK022832]	101%	
NC(=O)CC[n+]1ccc2ccccc2c1 [CBK022857C]	110%	
O=C(NC1(CN2CCCCC2)CCCCC1)NS(=O)(=O)c1ccc(Cl)cc1 [CBK022858]	94.4%	
O=C(Nc1ncnc2nc[nH]c12)NC1CCCCC1 [CBK022860]	97.7%	
Sc1nnnn1-c1ccccc1 [CBK022881G]	99.9%	
O=C(Oc1cccc2cnccc12)c1ccccc1 [CBK022889C]	105%	
CC(=O)NC(=O)c1cccc(Br)c1 [CBK022890]	99.3%	
FC(F)(F)c1cccc(CC2CSC(=S)N2)c1 (stereo not drawn) [CBK022895]	92.2%	
CCC(C(=O)c1c[nH]c2ccc(OC)cc12)N(C)C (stereo not drawn) [CBK022923]		viability at 28.5 h, 10 µM [1]: 96%
CCCC(=O)C1(c2ccccc2)CCNCC1 [CBK022936C]		viability at 28.5 h, 10 µM [1]: 89.3%
Cc1noc(C)c1S(N)(=O)=O [CBK022939]	84.6%	
CC1(C)Sc2nc3ccccc3n2C1=O [CBK022971]	85.4%	
CC1CN(C(C)N2CC(C)OC2=O)C(=O)O1 (stereo not drawn) [CBK022981]	89.8%	
COc1cc(/C(CS(C)(=O)=O)=N\O)cc(OC)c1OC [CBK022984]	83.8%	
CC(/C(=N/O)c1ccccc1)C(O)c1ccccn1 (stereo not drawn) [CBK022993]	83.3%	
COc1ccc(C(=O)[C@@H]2CCCC[C@H]2N)cc1 [CBK023040C]	91.6%	
OC1(c2ccc(Cl)cc2)CCNCC1 [CBK023044]	92%	
O=C(Nc1ccccc1)OCC(CN1CCCCC1)OC(=O)Nc1ccccc1 (stereo not drawn) [CBK023067C]	103%	
CC1(C)CCCN1C1=NC(=O)C(c2ccccc2)O1 (stereo not drawn) [CBK023070]	104%	

Structure (SMILES)	viability at 28.5 h, 10 µM (% viability)	other results
CNC(=O)Oc1ccc(C2(C)SCCS2)cc1 [CBK023078]		viability at 28.5 h, 10 µM: 98.9%
CCOC(=O)n1c(=O)n2n(c1=O)CC=CC2 [CBK023102]	93.9%	
Nc1ccc(Cl)cc1C(O)(CCCN1CCCCC1)c1ccccc1 (stereo not drawn) [CBK023107]	98.1%	
Cc1cc2nc(NS(C)(=O)=O)n(S(C)(=O)=O)c2cc1C [CBK023112]	106%	
COc1ccc(C(=O)C2CCCCC23NCCN3)cc1 (stereo not drawn) [CBK023140]	104%	
CCN(CC)CCN(CC(=O)Nc1c(C)cccc1Cl)Cc1ccccc1 [CBK023143]	97.7%	
Cc1nc2c(c(CCC(=O)O)n1)CCCC2 [CBK023157]	98.4%	
CC1CCCN(C(=O)N(C)C)C1 (stereo not drawn) [CBK023175]	118%	
CCN(CC)CCCOC(=O)C(CCSC)c1ccccc1C (stereo not drawn) [CBK023177C]	91.7%	
O=C(O)c1ccc(NS(=O)(=O)c2ccccc2)cc1O [CBK023181]	96.1%	
CC1CCCCN1CC(=O)Nc1ccccc1Oc1ccccc1 (stereo not drawn) [CBK023182C]	95.1%	
O=S(=O)(c1ccccc1)C1CC1 [CBK023184]	89%	
Nc1nc2cc3c(cc2[nH]1)OCO3 [CBK023191]	96.6%	
CNC(=O)Oc1ccccc1/C=N/N(C)C [CBK023194]		viability at 28.5 h, 10 µM: 97.5%
CCOC(=O)c1nc(N)c2c(CC#N)nn(C)c2n1 [CBK023254]	109%	
NC(=S)Nc1nc(-c2ccc(Br)cc2)cs1 [CBK023259]	100%	
O=S(=O)(/N=C/N1CCCC1)c1ccccc1 [CBK023272]	89.4%	
CCOC(=O)CNC1CCCCC1 [CBK023276C]	91%	
COC(=O)c1c(O)noc1C [CBK023348]	95.6%	
Cn1c2ccccc2c2nnc(NCCCCO)nc21 [CBK023366]	98.8%	
C(#Cc1ccc(-c2cc[nH]n2)s1)c1ccccc1 [CBK023413]	118%	
O=C(CSc1n[nH]c(=S)s1)NCCc1ccccc1 [CBK023445]	99.2%	
Nc1nnc(C(F)(F)F)o1 [CBK023457]	113%	
CCCN(C(=O)OC(C)(C)C)C1CCc2[nH]c(=O)c(C#N)cc2C1 (stereo not drawn) [CBK023470]	99.7%	
CCOC(=O)c1c(NC(C)=O)nc2n1CCS2 [CBK023488]	98.5%	

Structure (SMILES)	viability at 28.5 h, 10 µM (% viability)	other results
Cc1ccc(S(=O)(=O)NC(=O)N2CC3(C)CC2CC(C)(C)C3)cc1 (stereo not drawn) [CBK023512]	110%	
CCCCC(c1nnn[nH]1)n1nnc2ccccc21 (stereo not drawn) [CBK023526]	93.6%	
CCCC1CN(C)c2ccccc2C1=O (stereo not drawn) [CBK023527]	87%	
Cn1c(=O)c2c(-c3ccccc3)onc2n(C)c1=O [CBK023569]	85%	
CC(C)(C)C(C#N)C(Oc1ccc(Cl)cc1)n1cncn1 (stereo not drawn) [CBK023570]	90.3%	
CC1c2ccsc2CCN1S(C)(=O)=O (stereo not drawn) [CBK023574]	86.2%	
S=c1[nH]nc(-c2ccco2)n1-c1ccc(Cl)cc1 [CBK023586]	97.8%	
COC(=O)c1sccc1S(=O)(=O)N1CCN(c2ncnc3scc(C)c23)CC1 [CBK023600]	94.2%	
CSCc1nc(CS(=O)(=O)Cc2cccc(C(F)(F)F)c2)no1 [CBK023617]	87.8%	
O=c1c(C(F)(F)F)cccn1Cc1ccccc1 [CBK023620]	107%	
CCOC(=O)N1CCN(C(=O)c2oc3ccccc3c2C)CC1 [CBK023696]	92.4%	
CCCCN1CCCC1c1c[nH]c2ccccc12 (stereo not drawn) [CBK023773G]	93%	
Cc1c(C(=O)CCN(C)C2CC=C(c3ccc(F)cc3)CC2)cnn1CCO (stereo not drawn) [CBK023799]	90.4%	
Cc1nc(Nc2ccc(Cl)cc2)nc(N2CCN(C)CC2)n1 [CBK023855]	95.4%	
Cc1nc(NCc2ccc(C(F)(F)F)cc2)nc(N2CCN(C)CC2)n1 [CBK023866]	112%	
CN(c1ncccc1C#N)C1CCN(C(=O)OCc2ccccc2)CC1 [CBK023869C]	84.1%	
O=C(Cn1c(NCCCO)nc2ccccc21)c1cccs1 [CBK023894B]	96.5%	
CCN(CC)CC(=O)Nc1c2c(nc3ccccc13)N(C)CC2 [CBK023917C]	110%	
COc1cc2c(cc1OC)C(CCN)=NCC2 [CBK023947C]	86.6%	
CN1CCN(CCCCn2nc3n(c2=O)-c2ccccc2OC3(C)C)CC1 [CBK023953C]	95.8%	
c1coc(CCC2NCCn3cccc32)c1 (stereo not drawn) [CBK023964F]	95.2%	
CCCC(=O)c1ccc2c(c1)CC(N(CCC)CCC)C2 (stereo not drawn) [CBK023971C]	95.1%	
N=C(N)NCCc1c[nH]c2ccccc12 [CBK024011G]	107%	
COc1ccc(CCNCC2OCCc3cccc(OC)c32)cc1OC (stereo not drawn) [CBK024032C]	118%	
COc1cc2c(cc1OC)C(CCN1CCN(c3ccccc3C)CC1)OCC(C)(C)C2 (stereo not drawn) [CBK024043C]	98.5%	

Structure (SMILES)	viability at 28.5 h, 10 µM (% viability)	other results
COc1cc2c(cc1OC)C(CCN1CCN(c3ccc(Cl)cc3)CC1)OCC(C)(C)C2 (stereo not drawn) [CBK024051C]	111%	
CCOC(=O)c1cnn(-c2ccccc2)c1NS(=O)(=O)c1cccc(Cl)c1C [CBK024055]	84.6%	
O=C(CNC(=O)OCc1ccncc1)NCC(CCCN1CCC(c2ccccc2)CC1)(c1ccccc1)c1ccccc1 [CBK024060A]	112%	
CCCc1ncc(C[n+]2ccccc2C)c(N)n1 [CBK024255C]	96.1%	
CCC#CC(=O)Nc1ccccc1N1CCCNCC1 [CBK024291T]	98.5%	
Oc1ccc2nc(N[C@H]3CC4CCC3C4)sc2c1Cl (stereo partly drawn) [CBK024348G]	62.1%	
COc1cc2c3c(cccc3c1)CC(C)(N(C)C)C2 (stereo not drawn) [CBK024357C]	105%	
COC(=O)Nc1ccccc1N1CCN(CCCCN2CCN(c3ccccc3)C2=O)CC1 [CBK024372C]	91.8%	
Cc1cc(NS(=O)(=O)c2cccc(Cl)c2C)n[nH]1 [CBK024382]	91.2%	
Cc1cc(=O)[nH]c(N/N=C/c2ccc(Cl)cc2Cl)n1 [CBK024387]	95.8%	
NCc1ccc(-c2nc3ccccc3[nH]2)nc1 [CBK024396C]	87.7%	
CC(=O)N1CCc2c(c3cccc(Br)c3n2Cc2ccccc2)C1 [CBK024402]	93.9%	
Cc1ccc(S(N)(=O)=O)cc1NC(=O)Cc1ccccc1 [CBK024413]	86.7%	
O=C(NCc1ccccc1OC1CCNC1)C1CCCO1 (stereo not drawn) [CBK024503T]	96.9%	
COCCC(=O)NCc1ccccc1OC1CCNC1 (stereo not drawn) [CBK024504T]	136%	
CS(=O)(=O)c1ccc(C(=O)N(Cc2ccccc2)c2ccc(S(=O)(=O)N3CCOC3=O)cc2)cc1 [CBK024590]	110%	
O=[N+]([O-])c1cc(S(=O)(=O)n2ccc3ccccc32)ccc1N1CCNCC1 [CBK024593C]	91.2%	
Nc1ncnc2c1ncn2C1OC(CO)C(O)C1O (stereo not drawn) [CBK024679]	92.6%	
Nc1ccn(C2OC(CO)C(O)C2O)c(=O)n1 (stereo not drawn) [CBK024684]	108%	
NC(=O)c1cccc(Cn2c3c(c4cccc(C(=O)O)c42)CCCCC3)c1 [CBK024834]	98.6%	
COc1ccccc1C(=O)N1CCN(C(=O)CN2CCCC2)CC1 [CBK024836]	88.1%	
Cc1ccc(C(=O)N2CCN(C(=O)CN3CCN(C)CC3)C2)cc1 [CBK024841C]	76.4%	
Cc1nc(Nc2ccc(Cl)cc2)nc(OC2CCNCC2)n1 [CBK024848]	90.5%	
Cc1ccc(S(N)(=O)=O)cc1N [CBK024851]	109%	
